# pKi: −log10 of the molar value.
# Assays:
# Rho kinase 2 (ROCK-II) = Rho kinase 2 (ROCK-II) (Homo sapiens, UniProt O75116); assay: In vitro Rho kinase inhibitory activity assay (ADP-Glo), Rho kinase 2; assay type: biochemical; conditions: 10 μM ATP, 25° C., expressed as range of activity
# Procedure, shortened: (§1)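 ADP-Glo luminescence read-out. Enzyme (ROCK1 or ROCK2) + compound 30 min, then 10 μM ATP final, 1 h, 25 °C; 2.5 μM MBP peptide substrate, Tris pH7.5/MgCl2/BSA/DTT buffer, 1% DMSO. IC50 from variable-slope fit (0–100% fixed); Ki via Cheng-Prusoff.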
# Rho kinase 1 (ROCK-I) = Rho kinase 1 (ROCK-I) (Homo sapiens, UniProt Q13464); assay: In vitro Rho kinase inhibitory activity assay (ADP-Glo), Rho kinase 1; assay type: biochemical; conditions: 10 μM ATP, 25° C., expressed as range of activity
# Sequence of Rho kinase 1 (ROCK-I) (Q13464 whole entry): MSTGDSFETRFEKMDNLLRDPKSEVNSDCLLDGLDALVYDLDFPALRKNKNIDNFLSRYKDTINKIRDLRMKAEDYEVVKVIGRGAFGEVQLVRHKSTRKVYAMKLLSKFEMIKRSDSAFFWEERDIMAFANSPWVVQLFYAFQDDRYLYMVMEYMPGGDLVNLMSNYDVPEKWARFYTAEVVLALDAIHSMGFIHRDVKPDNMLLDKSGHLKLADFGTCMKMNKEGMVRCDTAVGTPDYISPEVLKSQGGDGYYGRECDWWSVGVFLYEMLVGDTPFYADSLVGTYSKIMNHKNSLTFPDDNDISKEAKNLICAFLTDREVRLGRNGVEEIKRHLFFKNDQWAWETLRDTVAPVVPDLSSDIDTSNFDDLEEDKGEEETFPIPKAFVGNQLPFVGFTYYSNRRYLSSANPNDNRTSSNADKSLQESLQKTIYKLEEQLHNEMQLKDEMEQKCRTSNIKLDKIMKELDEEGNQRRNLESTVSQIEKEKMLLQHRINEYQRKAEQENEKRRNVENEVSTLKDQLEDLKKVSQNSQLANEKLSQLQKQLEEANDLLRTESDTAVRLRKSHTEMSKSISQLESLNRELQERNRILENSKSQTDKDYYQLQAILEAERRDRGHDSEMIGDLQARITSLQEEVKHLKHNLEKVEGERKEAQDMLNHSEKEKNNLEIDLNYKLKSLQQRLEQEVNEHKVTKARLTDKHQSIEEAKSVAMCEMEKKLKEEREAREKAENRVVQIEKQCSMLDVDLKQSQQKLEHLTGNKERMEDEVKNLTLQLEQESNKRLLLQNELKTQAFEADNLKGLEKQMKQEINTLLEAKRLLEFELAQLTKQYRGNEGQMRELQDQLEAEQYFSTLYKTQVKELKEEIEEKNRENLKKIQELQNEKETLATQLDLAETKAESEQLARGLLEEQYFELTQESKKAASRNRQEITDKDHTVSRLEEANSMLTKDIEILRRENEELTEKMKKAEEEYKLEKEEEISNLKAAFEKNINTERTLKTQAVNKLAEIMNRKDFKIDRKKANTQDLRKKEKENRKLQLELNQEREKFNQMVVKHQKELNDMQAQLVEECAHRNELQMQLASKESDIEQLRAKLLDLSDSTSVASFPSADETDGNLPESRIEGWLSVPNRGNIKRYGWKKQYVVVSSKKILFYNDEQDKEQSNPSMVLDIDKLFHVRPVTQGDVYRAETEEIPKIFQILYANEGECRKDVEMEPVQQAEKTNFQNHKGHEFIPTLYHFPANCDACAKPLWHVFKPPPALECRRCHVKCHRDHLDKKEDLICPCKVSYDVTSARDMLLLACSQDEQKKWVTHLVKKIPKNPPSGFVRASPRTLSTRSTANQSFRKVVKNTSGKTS
# Procedure, shortened: as §1
# Sequence of Rho kinase 2 (ROCK-II) (O75116 whole entry): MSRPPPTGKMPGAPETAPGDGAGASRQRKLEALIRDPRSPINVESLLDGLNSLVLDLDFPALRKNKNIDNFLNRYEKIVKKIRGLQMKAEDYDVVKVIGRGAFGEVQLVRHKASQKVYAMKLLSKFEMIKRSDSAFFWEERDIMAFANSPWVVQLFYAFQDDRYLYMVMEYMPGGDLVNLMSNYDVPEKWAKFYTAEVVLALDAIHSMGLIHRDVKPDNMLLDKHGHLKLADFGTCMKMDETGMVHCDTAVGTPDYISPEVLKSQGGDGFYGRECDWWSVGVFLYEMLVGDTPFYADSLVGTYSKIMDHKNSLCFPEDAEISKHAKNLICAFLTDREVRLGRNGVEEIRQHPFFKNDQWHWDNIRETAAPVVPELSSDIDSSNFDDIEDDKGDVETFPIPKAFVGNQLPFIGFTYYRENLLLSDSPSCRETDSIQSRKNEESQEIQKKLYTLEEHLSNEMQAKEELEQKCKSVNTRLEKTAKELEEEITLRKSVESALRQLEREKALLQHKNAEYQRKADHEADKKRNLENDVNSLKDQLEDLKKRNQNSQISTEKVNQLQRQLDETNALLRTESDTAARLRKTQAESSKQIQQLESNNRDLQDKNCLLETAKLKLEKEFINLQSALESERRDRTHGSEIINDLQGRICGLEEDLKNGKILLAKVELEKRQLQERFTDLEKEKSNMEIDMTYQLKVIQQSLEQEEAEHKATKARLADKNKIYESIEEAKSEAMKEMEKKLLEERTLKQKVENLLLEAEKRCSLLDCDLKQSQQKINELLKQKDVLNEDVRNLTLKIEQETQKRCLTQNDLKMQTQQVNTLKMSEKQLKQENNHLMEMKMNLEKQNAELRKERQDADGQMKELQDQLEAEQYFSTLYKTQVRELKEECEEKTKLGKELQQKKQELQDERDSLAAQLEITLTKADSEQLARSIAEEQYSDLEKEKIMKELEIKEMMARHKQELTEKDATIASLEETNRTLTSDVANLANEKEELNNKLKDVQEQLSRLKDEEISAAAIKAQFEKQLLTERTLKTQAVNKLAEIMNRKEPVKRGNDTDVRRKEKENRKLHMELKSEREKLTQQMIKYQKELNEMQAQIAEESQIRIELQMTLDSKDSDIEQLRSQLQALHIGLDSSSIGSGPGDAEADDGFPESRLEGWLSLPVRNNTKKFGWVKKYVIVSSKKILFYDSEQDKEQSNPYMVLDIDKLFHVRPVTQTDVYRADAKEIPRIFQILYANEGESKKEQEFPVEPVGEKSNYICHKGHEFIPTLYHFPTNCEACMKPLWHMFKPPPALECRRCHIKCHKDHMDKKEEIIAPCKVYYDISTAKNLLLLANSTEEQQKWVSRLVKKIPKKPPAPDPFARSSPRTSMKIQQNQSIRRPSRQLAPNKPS
Compound,pKi (Rho kinase 2 (ROCK-II)),pKi (Rho kinase 1 (ROCK-I))
"Cc1c[nH]c2nccc(Oc3ccc(C[C@H](N)C(=O)N4CCN(C(=O)c5cccc(CN(C)C)c5)CC4)cc3F)c12 [Example 173, (S)-2-amino-1-(4-(3-((dimethylamino)methyl)benzoyl)piperazin-1-yl)-3-(3-fluoro-4-((3-methyl-1H-pyrrolo[2,3-b]pyridin-4-yl)oxy)phenyl)propan-1-one]",> 8.52,> 8.52
"Cc1c[nH]c2nccc(Oc3ccc(C[C@H](N)C(=O)N4CCN(C(=O)c5cccnc5)CC4)cc3F)c12 [Example 174, (S)-2-amino-3-(3-fluoro-4-((3-methyl-1H-pyrrolo[2,3-b]pyridin-4-yl)oxy)phenyl)-1-(4-nicotinoylpiperazin-1-yl)propan-1-one]",> 8.52,> 8.52
"Cc1c[nH]c2nccc(Oc3ccc(C[C@H](N)C(=O)N4CCN(C(=O)c5cnn(C)c5)CC4)cc3F)c12 [Example 175, (S)-2-amino-3-(3-fluoro-4-((3-methyl-1H-pyrrolo[2,3-b]pyridin-4-yl)oxy)phenyl)-1-(4-(1-methyl-1H-pyrazole-4-carbonyl)piperazin-1-yl)propan-1-one]",> 8.52,> 8.52
"Cc1c[nH]c2nccc(Oc3ccc(C[C@H](N)C(=O)N4CCN(C(=O)c5cn(C)cn5)CC4)cc3F)c12 [Example 176, (S)-2-amino-3-(3-fluoro-4-((3-methyl-1H-pyrrolo[2,3-b]pyridin-4-yl)oxy)phenyl)-1-(4-(1-methyl-1H-imidazole-4-carbonyl)piperazin-1-yl)propan-1-one]",> 8.52,7.52 to 8.52
"Cc1c[nH]c2nccc(Oc3ccc(C[C@H](N)C(=O)N4CCN(C(=O)c5nccs5)CC4)cc3F)c12 [Example 177, (S)-2-amino-3-(3-fluoro-4-((3-methyl-1H-pyrrolo[2,3-b]pyridin-4-yl)oxy)phenyl)-1-(4-(thiazole-2-carbonyl)piperazin-1-yl)propan-1-one]",> 8.52,> 8.52
"CN(C)C(=O)C(Cc1ccc(Oc2ccnc3[nH]ccc23)cc1)NC(=O)C1CCNC1 (stereo not shown) [Example 178, N-(3-(4-((1H-pyrrolo[2,3-b]pyridin-4-yl)oxy)phenyl)-1-(dimethylamino)-1-oxopropan-2-yl)pyrrolidine-3-carboxamide]",< 7.52,< 7.52
"O=C(NC(Cc1ccc(Oc2ccnc3[nH]ccc23)cc1)C(=O)Nc1ccccc1)C1CCNC1 (stereo not shown) [Example 179, N-(3-(4-((1H-pyrrolo[2,3-b]pyridin-4-yl)oxy)phenyl)-1-oxo-1-(phenylamino)propan-2-yl)pyrrolidine-3-carboxamide]",7.52 to 8.52,7.52 to 8.52
"O=C(NC(Cc1ccc(Oc2ccnc3[nH]ccc23)cc1)C(=O)NC1CCCCC1)C1CCNC1 (stereo not shown) [Example 180, N-(3-(4-((1H-pyrrolo[2,3-b]pyridin-4-yl)oxy)phenyl)-1-(cyclohexylamino)-1-oxopropan-2-yl)pyrrolidine-3-carboxamide]",7.52 to 8.52,7.52 to 8.52
"CN(C)CCNC(=O)C(Cc1ccc(Oc2ccnc3[nH]ccc23)cc1)NC(=O)C1CCCCC1 (stereo not shown) [Example 181, N-(3-(4-((1H-pyrrolo[2,3-b]pyridin-4-yl)oxy)phenyl)-1-((2-(dimethylamino)ethyl)amino)-1-oxopropan-2-yl)cyclohexanecarboxamide]",< 7.52,< 7.52
"CN(C)C(Cc1ccc(Oc2ccnc3[nH]ccc23)cc1)C(=O)NC1CCOCC1 (stereo not shown) [Example 182, 3-(4-((1H-pyrrolo[2,3-b]pyridin-4-yl)oxy)phenyl)-2-(dimethylamino)-N-(tetrahydro-2H-pyran-4-yl)propanamide]",< 7.52,< 7.52
"CN(C)C(Cc1ccc(Oc2ccnc3[nH]ccc23)cc1)C(=O)NC1CCCCC1 (stereo not shown) [Example 183, 3-(4-((1H-pyrrolo[2,3-b]pyridin-4-yl)oxy)phenyl)-N-cyclohexyl-2-(dimethylamino)propanamide]",7.52 to 8.52,< 7.52
"Cc1c[nH]c2nccc(Oc3ccc(C[C@@H](C(=O)NC4CCCCC4)N(C)C)cc3)c12 [Example 184, (S)—N-cyclohexyl-2-(dimethylamino)-3-(4-((3-methyl-1H-pyrrolo[2,3-b]pyridin-4-yl)oxy)phenyl)propanamide]",> 8.52,> 8.52
"CNC(=O)C(Cc1ccc(Oc2ccnc3[nH]ccc23)cc1)NCC1CCCCC1 (stereo not shown) [Example 185, 3-(4-((1H-pyrrolo[2,3-b]pyridin-4-yl)oxy)phenyl)-2-((cyclohexylmethyl)amino)-N-methylpropanamide]",< 7.52,< 7.52
"N[C@@H](Cc1ccc(Oc2ccnc3[nH]cc(Br)c23)c(F)c1)C(=O)NC1CCCCC1 [Example 186, (S)-2-amino-3-(4-((3-bromo-1H-pyrrolo[2,3-b]pyridin-4-yl)oxy)-3-fluorophenyl)-N-cyclohexylpropanamide]",> 8.52,> 8.52
"N[C@@H](Cc1ccc(Oc2ccnc3[nH]cc(Br)c23)c(F)c1)C(=O)N1CCN(Cc2ccccc2)CC1 [Example 187, (S)-2-amino-1-(4-benzylpiperazin-1-yl)-3-(4-((3-bromo-1H-pyrrolo[2,3-b]pyridin-4-yl)oxy)-3-fluorophenyl)propan-1-one]",> 8.52,> 8.52
"N[C@@H](Cc1ccc(Oc2ccnc3[nH]cc(Br)c23)cc1)C(=O)NC1CCCCC1 [Example 188, (S)-2-amino-3-(4-((3-bromo-1H-pyrrolo[2,3-b]pyridin-4-yl)oxy)phenyl)-N-cyclohexylpropanamide]",> 8.52,> 8.52
"N[C@@H](Cc1ccc(Oc2ccnc3[nH]cc(Br)c23)cc1)C(=O)NC1CCOCC1 [Example 189, (S)-2-amino-3-(4-((3-bromo-1H-pyrrolo[2,3-b]pyridin-4-yl)oxy)phenyl)-N-(tetrahydro-2H-pyran-4-yl)propanamide]",> 8.52,> 8.52
"N[C@@H](Cc1ccc(Oc2ccnc3[nH]cc(I)c23)cc1)C(=O)NC1CCCCC1 [Example 190, (S)-2-amino-N-cyclohexyl-3-(4-((3-iodo-1H-pyrrolo[2,3-b]pyridin-4-yl)oxy)phenyl)propanamide]",> 8.52,> 8.52
"N[C@@H](Cc1ccc(Oc2ccnc3[nH]cc(Cl)c23)cc1)C(=O)NC1CCCCC1 [Example 191, (S)-2-amino-3-(4-((3-chloro-1H-pyrrolo[2,3-b]pyridin-4-yl)oxy)phenyl)-N-cyclohexylpropanamide]",> 8.52,> 8.52
"N[C@@H](Cc1ccc(Oc2ccnc3[nH]cc(-c4ccncc4)c23)cc1)C(=O)N1CCN(Cc2ccccc2)CC1 [Example 192, (S)-2-amino-1-(4-benzylpiperazin-1-yl)-3-(4-((3-(pyridin-4-yl)-1H-pyrrolo[2,3-b]pyridin-4-yl)oxy)phenyl)propan-1-one]",> 8.52,> 8.52
"CCn1nccc1-c1c[nH]c2nccc(Oc3ccc(C[C@H](N)C(=O)N4CCN(Cc5ccccc5)CC4)cc3)c12 [Example 193, (S)-2-amino-1-(4-benzylpiperazin-1-yl)-3-(4-((3-(1-ethyl-1H-pyrazol-5-yl)-1H-pyrrolo[2,3-b]pyridin-4-yl)oxy)phenyl)propan-1-one]",7.52 to 8.52,7.52 to 8.52
"N[C@@H](Cc1ccc(Oc2ccnc3[nH]cc(-c4cccnc4)c23)cc1)C(=O)N1CCN(Cc2ccccc2)CC1 [Example 194, (S)-2-amino-1-(4-benzylpiperazin-1-yl)-3-(4-((3-(pyridin-3-yl)-1H-pyrrolo[2,3-b]pyridin-4-yl)oxy)phenyl)propan-1-one]",> 8.52,> 8.52
"N#Cc1ccc(-c2c[nH]c3nccc(Oc4ccc(C[C@H](N)C(=O)N5CCN(Cc6ccccc6)CC5)cc4)c23)s1 [Example 195, (S)-5-(4-(4-(2-amino-3-(4-benzylpiperazin-1-yl)-3-oxopropyl)phenoxy)-1H-pyrrolo[2,3-b]pyridin-3-yl)thiophene-2-carbonitrile]",> 8.52,> 8.52
"N[C@@H](Cc1ccc(Oc2ccnc3[nH]cc(-c4cncs4)c23)cc1)C(=O)N1CCN(Cc2ccccc2)CC1 [Example 196, (S)-2-amino-1-(4-benzylpiperazin-1-yl)-3-(4-((3-(thiazol-5-yl)-1H-pyrrolo[2,3-b]pyridin-4-yl)oxy)phenyl)propan-1-one]",> 8.52,> 8.52
"Cn1cncc1-c1c[nH]c2nccc(Oc3ccc(C[C@H](N)C(=O)N4CCN(Cc5ccccc5)CC4)cc3)c12 [Example 197, (S)-2-amino-1-(4-benzylpiperazin-1-yl)-3-(4-((3-(1-methyl-1H-imidazol-5-yl)-1H-pyrrolo[2,3-b]pyridin-4-yl)oxy)phenyl)propan-1-one]",> 8.52,> 8.52
"N[C@@H](Cc1ccc(Oc2ccnc3[nH]cc(-c4cnoc4)c23)cc1)C(=O)N1CCN(Cc2ccccc2)CC1 [Example 198, (S)-2-amino-1-(4-benzylpiperazin-1-yl)-3-(4-((3-(isoxazol-4-yl)-1H-pyrrolo[2,3-b]pyridin-4-yl)oxy)phenyl)propan-1-one]",> 8.52,> 8.52
"N[C@@H](Cc1ccc(Oc2ccnc3[nH]cc(-c4ccccc4)c23)cc1)C(=O)N1CCN(Cc2ccccc2)CC1 [Example 199, (S)-2-amino-1-(4-benzylpiperazin-1-yl)-3-(4-((3-phenyl-1H-pyrrolo[2,3-b]pyridin-4-yl)oxy)phenyl)propan-1-one]",> 8.52,> 8.52
"N[C@@H](Cc1ccc(Oc2ccnc3[nH]cc(-c4ccc(O)cc4)c23)cc1)C(=O)N1CCN(Cc2ccccc2)CC1 [Example 200, (S)-2-amino-1-(4-benzylpiperazin-1-yl)-3-(4-((3-(4-hydroxyphenyl)-1H-pyrrolo[2,3-b]pyridin-4-yl)oxy)phenyl)propan-1-one]",> 8.52,> 8.52
"N[C@@H](Cc1ccc(Oc2ccnc3[nH]cc(C4=CCOC4)c23)cc1)C(=O)N1CCN(Cc2ccccc2)CC1 [Example 201, (S)-2-amino-1-(4-benzylpiperazin-1-yl)-3-(4-((3-(2,5-dihydrofuran-3-yl)-1H-pyrrolo[2,3-b]pyridin-4-yl)oxy)phenyl)propan-1-one]",> 8.52,> 8.52

# Source: patent US10501461B2, “Tyrosine amide derivatives as Rho-kinase inhibitors” (CHIESI FARMACEUTICI S.P.A., priority 2017, dated 2019)
